Test system: mu opiate receptor
Test: Binding to the mu opiate receptor

Substance: H-Tyr-Pro-Trp-Phe-NH2 [SEQ ID NO:1]
- Potency for the mu opiate receptor: very potent
